In one series the test system is Group A streptococci. As to the kind of experiment: antimicrobial spectrum assay. It is filed as cell-based. The conditions noted are these: comparison of mutacin I and mutacin III.
Series [1] deals with gram-positive bacteria including the multidrug-resistant Staphylococci and Enterococci. As to the kind of experiment: spectrum of antimicrobial activity. Type of series: cell-based.
Another series concerns pneumococci. As to the kind of experiment: antimicrobial spectrum assay. The conditions noted are these: comparison of mutacin I and mutacin III. Type of series: cell-based.
In a further series the test system is enterococci. As to the kind of experiment: antimicrobial spectrum assay. Type of series: cell-based. To be noted: comparison of mutacin I and mutacin III.
A short description of series [2]: reverse-phase HPLC analysis (hydrophobicity). The conditions noted are these: from acetonitrile concentration at elution. It is filed as physicochemical. An excerpt: For purification, the crude extract of mutacin I (SEQ ID No: 2) was applied to a Source 15RPC column and eluted with a fragmented gradient A (0.1% TFA) and B (0.085% TFA in 60% acetonitrile) using a LKB Purifier (Amersham Pharmacia Biotech, Piscataway, N.J.). The active fractions were pooled and dried in a lyophilizer. The pellet was redissolved in 0.25% TFA and subjected to a second round purification using a fragmented gradient of buffer A (0.1% TFA) and B (0.085% TFA in 80% methanol). The single active peak fraction was collected, dried in a lyophilizer, and used for sequence analysis and electrospray ionization mass spectrometry (EIMS).

On to “mutacin I: lantibiotic from Streptococcus mutans CH43, twenty-four amino acids in its mature form, approximately 2364 Da (FSSLSLCSLGCTGVKNPSFNSYCC)”, for which the “pH range of activity” value is “works in a wide range of pH”. For the same substance, the antimicrobial activity entry with Group A streptococci is “equal activities”. In series [1], the “resistance of sensitive bacteria” value is “resistance to mutacin has not been observed” and the “spectrum of antimicrobial activity” value is on record as “wide spectrum of antimicrobial activity”. In the series with pneumococci, the antimicrobial activity result is listed as “equal activities”. The antimicrobial activity result in the series with enterococci is “equal activities”. For the same substance, the hydrophobicity entry in series [2] is recorded as “more hydrophobic than mutacin III”.

Values taken from patent US6699970B2, “Mutacin I biosynthesis genes and proteins” (priority 2000, dated 2004).
